Reference: patent publication US20240199585A1, “SOLID FORMS OF (3R)-N-[2-CYANO-4-FLUORO-3-(3-METHYL-4-OXO-QUINAZOLIN-6-YL)OXY-PHENYL]-3-FLUORO-PYRROLIDINE-1-SULFONAMIDE” (Hoffmann-La Roche Inc., priority 2021, published 2024)

Experiments:
[1] = cited from earlier work
[2] = Moisture sorption/desorption (dynamic vapour sorption, DVS); type: physicochemical; settings: for Masschange (DVS): from 0%-90% RH; for Hygroscopicity: increase in mass from 0%-RH to 90%-RH
Method: Moisture sorption/desorption data was collected on a DVS Advantage, a DVS Adventure, or a DVS Intrinsic (SMS Surface Measurements Systems) moisture balance system. The sorption/desorption isotherms were measured stepwise in a range from 0%-RH to 90%-RH at typically 25° C. A weight change of typically <0.001%/min was chosen as criterion to switch to the next level of relative humidity (with a maximum equilibration time of typically 24 hours, if the weight change criterion was not met). The data were corrected for the initial moisture content of the samples by taking the weight after drying of the samples at 0%-RH as zero point.
The hygroscopicity of a given substance was characterized (by close analogy with the European Pharmacopoeia) by the increase in mass when the relative humidity was raised from 0%-RH to 90%-RH: […]

[3] = High humidity storage experiments; type: physicochemical

Masschange (DVS) [2] | Solid form stability in high humidity storage [3] | Solid form change during the DVS cycle ([2]; sorption/desorption cycle 0%-90% RH) | Structure (SMILES) | brain permeability [1] | Hygroscopicity [2]
– | – | – | CC(C)(C)c1nc(-c2cccc(NS(=O)(=O)c3c(F)cccc3F)c2F)c(-c2ccnc(N)n2)s1 [Dabrafenib] | very poor | –
– | – | – | COC(=O)N[C@@H](C)CNc1nccc(-c2cn(C(C)C)nc2-c2cc(Cl)cc(NS(C)(=O)=O)c2F)n1 [Encorafenib] | very poor | –
– | – | – | CCCS(=O)(=O)Nc1ccc(F)c(C(=O)c2c[nH]c3ncc(-c4ccc(Cl)cc4)cc23)c1F [Vemurafenib] | very poor | –
~3.8% | Recrystallization to Form A | – | Cn1cnc2ccc(Oc3c(F)ccc(NS(=O)(=O)N4CC[C@@H](F)C4)c3C#N)cc2c1=O [amorphous form, (3R)-N-[2-cyano-4-fluoro-3-(3-methyl-4-oxo-quinazolin-6-yl)oxy-phenyl]-3-fluoro-pyrrolidine-1-sulfonamide] | – | hygroscopic (weight increase 2.0% ≤ Dm < 15.0%)
< 0.2% | – | no solid form change | Cn1cnc2ccc(Oc3c(F)ccc(NS(=O)(=O)N4CC[C@@H](F)C4)c3C#N)cc2c1=O [polymorphic form A, (3R)-N-[2-cyano-4-fluoro-3-(3-methyl-4-oxo-quinazolin-6-yl)oxy-phenyl]-3-fluoro-pyrrolidine-1-sulfonamide] | – | not hygroscopic
